Measurements: PubChem BioAssay (NCI)
Several values for one entry are separate records, joined by “and”; a condition that tells them apart may be missing. Equal entries are not always repeated.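 Tested at 5 concentrations; 48 h exposure; 96-well plates; endpoints linearly interpolated, else capped at highest concentration. Here, GI50 denotes the concentration required for 50% inhibition of growth. The concentration for full growth arrest is given as TGI.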

Legend:
Assay in all cases: growth of human tumour cells (NCI), 48 h
[1] = test system: BT-549 breast
[2] = test system: CAKI-1 renal
[3] = test system: CCRF-CEM leukemia
[4] = test system: HCT-116 colon
[5] = test system: HOP-62 NSCLC
[6] = test system: NCI-H23 lung
[7] = test system: RXF 393 renal
[8] = test system: SF-539 CNS
[9] = test system: SK-MEL-28 melanoma
[10] = test system: SNB-19 CNS

SMILES | TGI [1] [µM] | TGI [2] | TGI [3] | TGI [4] | TGI [5] | TGI [6] [µM] | TGI [7] | TGI [8] | TGI [9] [µM] | TGI [10] [µM] | GI50 [1] [µM] | GI50 [2] [µM] | GI50 [3] [µM] | GI50 [4] [µM] | GI50 [5] [µM] | GI50 [6] [µM] | GI50 [7] [µM] | GI50 [8] [µM] | GI50 [9] [µM] | GI50 [10] [µM]
COC(=O)C#Cc1ccc([N+](=O)[O-])cc1 | 3.34 | 2.74 µM | 2.27 µM | 3.46 µM | 6.87 µM | 3.68 | 4.11 µM | 4.08 µM | 4.13 | 8.47 | – | – | – | – | – | – | – | – | – | –
CN(CCC(=O)O)S(=O)(=O)c1ccccc1 | > 100 | > 100 µM | > 100 µM | > 100 µM | > 100 µM | > 100 | > 100 µM | > 100 µM | > 100 | > 100 | – | – | – | – | – | – | – | – | – | –
CO[C@H]1CC[C@@]2(C)C(=CC[C@H]3[C@@H]4C[C@H](O)C[C@@]4(C)CC[C@@H]32)C1 | 22.8 | 16.3 µM | 19.1 µM | 18.1 µM | 52.4 µM | 27.1 | 6.57 µM | 8.64 µM | 22.1 | 22.2 | 7.38 | 2.93 | 3.05 | 4.88 | 10.2 | 5.54 | 2.49 | 3.01 | 8.55 | 4.86
O=C(O)c1cccc(CC(Br)C(=O)O)c1 (configuration not stated) | > 100 | > 100 µM | > 100 µM | > 100 µM | > 100 µM | > 100 | > 100 µM | > 100 µM | > 100 | > 100 | – | – | – | – | – | – | – | – | – | –
CN(C)CC1CCn2c(c(C3=C(c4cn(C)c5ccccc45)C(=O)NC3=O)c3ccccc32)C1 (configuration not stated) | 12.2 | 7.66 µM | 24.2 µM | 6.75 µM | 8.91 µM | 11.3 | 6.71 µM | 7.49 µM | 8.74 | 10.4 | 5.3 | 3.44 | 6.41 | 3.24 | 4.55 | 4.71 | 3.3 | 3.87 | 4.59 | 4.84
Cc1cccc(N=C2c3cc([N+](=O)[O-])ccc3-c3c2cc([N+](=O)[O-])cc3[N+](=O)[O-])c1 | 11.2 | 77.9 µM | > 100 µM | 3.37 µM | 19.9 µM | 27.6 | 4.95 µM | 37.8 µM | 31.3 | 31.7 | 3.45 | 15.5 | 3.87 | 1.67 | 4.28 | 5.33 | 2.28 | 17 | 13.3 | 14.3
O=C1/C(=C/c2ccc(Cl)cc2)CN(C(=O)C(Cl)Cl)C/C1=C\c1ccc(Cl)cc1 | 0.765 | 0.865 µM | > 59.3 µM | 0.13 µM | 0.94 µM | 0.887 | 0.378 µM | 0.467 µM | 0.517 | 0.576 | 0.259 | 0.264 | 0.0742 | 0.0336 | 0.288 | 0.242 | 0.18 | 0.194 | 0.227 | 0.177
Cn1cnc2c(NCc3ccccc3)nc(NCCO)nc21 | > 454 | > 90.6 µM and 265 µM | 98.2 µM and 353 µM | > 96.5 µM and 321 µM | > 86 µM and 183 µM | 382 | 40.4 µM and 187 µM | > 90 µM and 92.7 µM | 280 | 382 | 147 | 63.6 | 143 | 49.3 | – | 110 | 17.7 | 36.7 | 88.7 | 98.9
Nc1nccc(Nc2ccc(S(N)(=O)=O)cc2)n1 | > 100 | > 100 µM | > 100 µM | > 100 µM | > 100 µM | > 100 | > 100 µM | > 100 µM | > 100 | > 100 | – | – | – | – | – | – | – | – | – | –
O=C(Nc1ccc(Br)c(Cl)c1)c1cc(F)ccc1O | 2.7 | 3.46 µM | > 15.1 µM | 2.08 µM | > 13.2 µM | 3.17 | 3.97 µM | 6.32 µM | 3.87 | > 50 | 0.525 | 0.826 | 1.43 | 0.423 | 0.893 | 0.36 | 1.06 | 0.771 | 0.421 | 0.729
CN1CCN(Cc2ccc(NC(=O)c3cncc(C#Cc4c(N)ncc5cc(F)ccc45)c3)cc2C(F)(F)F)CC1 | 12.6 | 10.1 µM | 2.65 µM | 1.26 µM | 12 µM | 4.65 | 1.57 µM | 2.73 µM | 1.43 | 1.57 | 4.86 | 3.3 | 1.04 | 0.595 | 2.4 | 1.36 | 0.836 | 0.86 | 0.729 | 0.87
C=C[C@]1(C)C=C2C(=O)[C@@]3(O)OC(=O)[C@@]4(CCCC(C)(C)[C@H]34)[C@@]2(O)CC1 | 2.48 | 3.02 µM | 10.7 µM | 2.86 µM | 15.7 µM | 5.29 | 1.91 µM | 2.76 µM | 3.22 | 19.7 | 1.07 | 1.33 | 0.383 | 1.3 | 4.17 | 2.14 | 0.608 | 1.37 | 1.67 | 6.33
C/C(=C\c1ccn(-c2ccc(N)cc2)n1)[C@@H]1C[C@@H]2O[C@]2(C)CCC[C@H](C)[C@H](O)[C@@H](C)C(=O)C(C)(C)[C@@H](O)CC(=O)O1 | > 50 | > 50 µM | > 50 µM | > 50 µM | > 50 µM | > 50 | 0.406 µM | 0.357 µM | – | > 50 | 0.138 | 0.202 | 0.0338 | 0.0189 | 0.0682 | 0.0594 | 0.0478 | 0.0702 | – | 0.29
